In patent US20210115071A1, “NANOSCALE METAL-ORGANIC FRAMEWORKS FOR ENHANCED TUMOR CHEMORADIATION” (Oregon State University, priority 2019, published 2021):

Tests used:
[1] = tested on: 4T1 cells; details: free drug, previously reported by the inventors; read-out: individual agent IC50; cited from earlier work
[2] = Drug release from TB@Hf-BDC-PEG by dialysis; assay type: physicochemical; details: 25° C.
Protocol: (§1) Unloaded drug(s) were removed by centrifugation and the supernatant was collected and quantified on HPLC to determine the concentration of unloaded talazoparib and buparlisib. A calibration curve for talazoparib and buparlisib was obtained using standard solutions at different concentrations and the curve was fitted with linear regression. Encapsulation efficiency was determined based on the ratio of the amount of drug loaded in Hf-BDC-PEG to the total amount added. The resulting nMOFs were dried under vacuum and stored until use. The influence of pH on drug release of talazoparib and buparlisib from the Hf-BDC-PEG nMOF was investigated using dialysis. TB@Hf-MOF (1.6 mg, 500 μL) was loaded into Slide-A-Lyzer MINI dialysis microtubes with a molecular weight cutoff of 2,000. The loaded samples were dialyzed against 12 mL of buffer (pH 5.5 or 7.4 PBS) with gentle stirring under ambient conditions. At designated time points of 0, 1, 2, 4, 24, 48, 72, 168, and 336 hours, sink samples (6 mL) were collected and replaced with fresh solution. Talazoparib and buparlisib concentrations were determined via HPLC, and drug release profiles were plotted as cumulative % of total drug release vs. time. All drug release measurements were performed in triplicate.

[3] = cited from earlier work
[4] = Drug loading / encapsulation efficiency in Hf-BDC-PEG by HPLC; assay type: physicochemical; details: loaded into Hf-BDC-PEG
Protocol: as §1, with “Talazoparib and buparlisib were loaded into the Hf-BDC-PEG nMOFs by directly adding aliquots of the dissolved drugs (10 mg/mL in DMSO) at the desired concentrations into distilled water (2 mL) with the Hf-BDC-PEG nMOFs (approximately 5.0 mg) and stirred overnight. Unloaded” for “Unloaded”

[5] = tested on: CT26.wt cells; assay: Free drug cytotoxicity and combination index; assay type: cell-based, Murine; details: for IC50 decrease in combination vs individual drug: 30:1 TMZ:Tal; for IC50: Mus musculus, CT26.WT, 72 hrs, combination as overall concentration
Protocol: Free drug cytotoxicity was investigated with Tal and TMZ as individual and combination agents. To determine the optimal TMZ:Tal ratio, CT26.wt cells were plated at 4×10^3 cells per well in a 96-well plate and allowed to settle overnight. Cells were then treated with TMZ (0, 10, 30, 150, 300, 600 or 1000 μM), Tal (0, 1, 5, 10, or 100 μM), or TMZ:Tal at each of the concentrations combined (ratios ranging from 1000:1 to 1:10) and incubated for 72 hrs. Combination indexes (CIs) were determined for all combinations (including only those points on the curve with Fa values between 0.1 and 0.9) using CompuSyn (ComboSyn Inc., Paramus, N.J., USA).

[6] = Drug loading of Hf-BDC nMOF (encapsulation efficiency); assay type: physicochemical; details: loaded in Hf-BDC nMOF
Protocol: nMOFs were suspended in either 18 MΩ water (generation 1) or methanol (generation 2) at 5 mg/mL depending on colloidal stability. nMOF redispersed in water at 5 mg/mL was combined with fucoidan or dextran (both at 1 mg/mL in 18 MΩ water) at a 1:1 v/v ratio, sonicated for 1 hour, and filtered. nMOF redispersed in methanol at 5 mg/mL was combined with fucoidan or dextran (both at 1 mg/mL in 18 MΩ water) at a 1:1 v/v ratio, sonicated for 15 mins and stirred open overnight. After evaporation nMOFs were redispersed to 2.5 mg/mL nMOF in water and subsequently filtered. For drug loading, all steps remained the same except that drug dissolved in DMSO (Tal and/or TMZ or Cyanine 7.5) was added to the nMOF in water or methanol, sonicated for one hour, and washed by centrifuge twice (collecting the supernatant for quantification) before continuing with either surface coating procedure.

| drug released within the first 24 hours ([2]; pH 5.5, PBS) | drug release after two weeks incubation ([2]; pH 7.5, PBS) | drug released within the first 24 hours ([2]; pH 7.5, PBS) [%] | Encapsulation efficiency (EE %) [4] | average encapsulation efficiencies (EE) [6] [%] | SMILES | IC50 [1] [µM] | log P [3] | IC50 decrease in combination vs individual drug [5] [fold] | IC50 [5] [µM] |
| --- | --- | --- | --- | --- | --- | --- | --- | --- | --- |
| ~37% | ~100% | 24 | 14% | – | Nc1cc(C(F)(F)F)c(-c2cc(N3CCOCC3)nc(N3CCOCC3)n2)cn1 [buparlisib] | 4.7 | 2.13 | – | – |
| approximately 21% | approximately 85% | 11 | 77% | 54 | Cn1ncnc1[C@H]1c2n[nH]c(=O)c3cc(F)cc(c23)N[C@@H]1c1ccc(F)cc1 [talazoparib] | 1.4 | 2.93 | 14.6 | 5.1 |
| – | – | – | – | – | Cn1nnc2c(C(N)=O)ncn2c1=O [TMZ, temozolomide] | – | – | 3.3 | 34 |
| – | – | – | approximately 98% | – | C[N+]1=C(C=CC2=CC(=CC=C3N(CCCCCC(=O)O)c4ccc5ccccc5c4C3(C)C)CCC2)C(C)(C)c2c1ccc1ccccc21.[Cl-] [Cy 7.5, cyanine 7.5 carboxylic acid] | – | – | – | – |
